One assay deals with T1, MycN (Homo sapiens, UniProt P04198).
T1 construct: endogenous in cells; host or cells: SK-N-BE(2)
T1 sequence (P04198 1-464): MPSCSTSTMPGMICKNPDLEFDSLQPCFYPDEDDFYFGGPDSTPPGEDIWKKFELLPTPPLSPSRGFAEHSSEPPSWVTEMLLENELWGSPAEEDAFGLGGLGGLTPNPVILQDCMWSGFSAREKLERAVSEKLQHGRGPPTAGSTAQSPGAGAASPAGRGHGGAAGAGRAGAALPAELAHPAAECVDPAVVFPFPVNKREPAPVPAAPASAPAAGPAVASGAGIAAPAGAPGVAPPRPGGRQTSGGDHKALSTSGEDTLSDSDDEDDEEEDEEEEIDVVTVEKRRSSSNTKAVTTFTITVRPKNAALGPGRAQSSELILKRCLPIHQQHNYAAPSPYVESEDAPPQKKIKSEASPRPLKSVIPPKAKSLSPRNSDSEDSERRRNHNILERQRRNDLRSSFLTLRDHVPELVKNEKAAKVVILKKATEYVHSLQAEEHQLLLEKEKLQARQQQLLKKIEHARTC
Put plainly: Degradation of MycN protein in SK-N-BE(2) cells, JESS/Western blot of lysates. It is filed as cell-based. The following applies: SKNBE2, 24 h; for Dmax at 0.5 µM: read-out: % Degradation of MycN (SKNBE2) 24 h, 0.5 μM; for Dmax at 1 µM: read-out: % Degradation of MycN (SKNBE2) 24 h, 1 μM; for Dmax at 3 µM: read-out: % Degradation of MycN (SKNBE2) 24 h, 3 μM; for Dmax at 6 µM: read-out: % Degradation of MycN (SKNBE2) 24 h, 6 μM. In a few lines: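 SK-N-BE(2) adherent cells (5E5 per well of a 6 well dish) were grown 24 hrs, then exposed to compounds diluted 1 in 20 in media, with DMSO controls, for 24 hrs. Cells were scraped, pelleted, PBS washed and lysed in RIPA buffer cocktail; after BCA protein quantitation, n-myc was detected by chemiluminescence on JESS/Western blot with tubulin and GAPDH loading controls read in the near infra red channel.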

In the next assay the target is T2, MycC (Homo sapiens, UniProt P01106).
T2 construct: endogenous in cells; host or cells: L363
T2 sequence (P01106 whole entry): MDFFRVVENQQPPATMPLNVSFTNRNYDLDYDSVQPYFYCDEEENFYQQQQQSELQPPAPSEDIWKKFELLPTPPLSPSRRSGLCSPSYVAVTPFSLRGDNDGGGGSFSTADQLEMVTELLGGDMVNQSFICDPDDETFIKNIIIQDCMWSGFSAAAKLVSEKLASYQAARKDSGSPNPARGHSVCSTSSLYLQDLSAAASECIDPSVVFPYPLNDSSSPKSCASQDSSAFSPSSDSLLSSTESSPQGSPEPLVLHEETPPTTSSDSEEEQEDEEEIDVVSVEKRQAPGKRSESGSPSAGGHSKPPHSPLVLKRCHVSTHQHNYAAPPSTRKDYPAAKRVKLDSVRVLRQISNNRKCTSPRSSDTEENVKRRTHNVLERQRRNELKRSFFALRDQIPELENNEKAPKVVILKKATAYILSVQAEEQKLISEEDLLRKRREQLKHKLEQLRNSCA
Kind of assay: Degradation of MycC protein in L363 cells, JESS/Western blot of lysates. It is filed as cell-based. Conditions: L-363, 24 h; for Dmax at 0.5 µM: read-out: % Degradation of MycC (L-363) 24 h, 0.5 μM; for Dmax at 1 µM: read-out: % Degradation of MycC (L-363) 24 h, 1 μM; for Dmax at 3 µM: read-out: % Degradation of MycC (L-363) 24 h, 3 μM; for Dmax at 6 µM: read-out: % Degradation of MycC (L-363) 24 h, 6 μM. In short, it runs like this: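 L363 suspension cells were seeded at 1E6 cells per well and exposed to compound (stock 10 mM in DMSO) for 24 hrs. Cells were collected, spun down, rinsed with PBS, lysed in RIPA buffer cocktail on ice, clarified and kept at −80 degrees. Lysate protein was quantified by BCA, and c-myc was measured on JESS by chemiluminescence with tubulin and GAPDH loading controls in the NIR channel.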

The values that follow come from patent US20250170130A1, “MODULATORS OF MYC FAMILY PROTO-ONCOGENE PROTEIN” (Nalo Therapeutics, priority 2022, published 2025).

Read-outs that look alike come from different tables or passages of the source. Some results are limits rather than exact numbers.

As to `O=C1c2ccccc2C(=O)N1CC12CC(CN(c3nccc(Nc4cc(C5CCCC5)[nH]n4)n3)C1)C2` [Compound 127, 2-[[3-[4-[(5-Cyclopentyl-1H-pyrazol-3-yl)amino]pyrimidin-2-yl]-3-azabicyclo[3.1.1]heptan-1-yl]methyl]isoindoline-1,3-dione], on MycN, the Dmax at 0.5 µM fell in the range of 50 to 79%, the Dmax at 1 µM was in the range of 80 to 100%, the Dmax at 3 µM fell in the range of 80 to 100% and the Dmax at 6 µM lay in the range of 80 to 100%. At MycC, the Dmax at 0.5 µM is under 20%, the Dmax at 1 µM is 80 to 100%, the Dmax at 3 µM is 80 to 100% and the Dmax at 6 µM was in the range of 80 to 100%.
Take `COC1CN(CC23CC(C2)N(c2nccc(Nc4cc(C5CCCC5)[nH]n4)n2)C3)C1` [Compound 177, N-(5-Cyclopentyl-1H-pyrazol-3-yl)-2-[4-[(3-methoxyazetidin-1-yl)methyl]-2-azabicyclo[2.1.1]hexan-2-yl]pyrimidin-4-amine]: the Dmax at 0.5 µM at MycN (SKNBE2 cells, 24 h, 0.5 μM) is 20 to 49%; on MycC (L-363 cells, 24 h, 0.5 μM), under 20%. The Dmax at 1 µM at MycN (SKNBE2 cells, 24 h, 1 μM) was under 20%; on MycC (L-363 cells, 24 h, 1 μM) it was 20 to 49%. Also, the Dmax at 3 µM on MycN (SKNBE2 cells, 24 h, 3 μM) was 50 to 79%; at MycC (L-363 cells, 24 h, 3 μM) it was 20 to 49%. For the same compound, the Dmax at 6 µM at MycN (SKNBE2 cells, 24 h, 6 μM) is 50 to 79%; at MycC (L-363 cells, 24 h, 6 μM) it was 80 to 100%.
Take `CNC[C@H]1CN(c2nccc(Nc3cc(C4CCCC4)[nH]n3)n2)C[C@H]1F` [Compound 181]: the Dmax at 0.5 µM at MycN (SKNBE2 cells, 24 h, 0.5 μM) is under 20%. Moreover, the Dmax at 1 µM was under 20% on MycN (SKNBE2 cells, 24 h, 1 μM) and under 20% at MycC (L-363 cells, 24 h, 1 μM). Also, on MycN (SKNBE2 cells, 24 h, 3 μM), the Dmax at 3 µM fell in the range of 20 to 49%. In addition, the Dmax at 6 µM on MycN (SKNBE2 cells, 24 h, 6 μM) was 80 to 100%; on MycC (L-363 cells, 24 h, 6 μM), 80 to 100%.
For `CNCC12CC(C1)N(c1ncc(C)c(Nc3cc(C4CCCC4)[nH]n3)n1)C2` [Compound 182, N-(5-Cyclopentyl-1H-pyrazol-3-yl)-5-methyl-2-[4-(methylaminomethyl)-2-azabicyclo[2.1.1]hexan-2-yl]pyrimidin-4-amine], the Dmax at 0.5 µM at MycN (SKNBE2 cells, 24 h, 0.5 μM) was 20 to 49%. Moreover, the Dmax at 1 µM on MycN (SKNBE2 cells, 24 h, 1 μM) lay in the range of 20 to 49%. Moreover, at MycN (SKNBE2 cells, 24 h, 3 μM), the Dmax at 3 µM lay within 80 to 100%. Also, the Dmax at 6 µM on MycN (SKNBE2 cells, 24 h, 6 μM) fell in the range of 80 to 100%; at MycC (L-363 cells, 24 h, 6 μM) it was 80 to 100%.
In the case of `CNCC12CC(C1)N(c1nc3c(c(Nc4cc(C5CCCC5)[nH]n4)n1)CCC3)C2` [Compound 183, N-(5-Cyclopentyl-1H-pyrazol-3-yl)-2-[4-(methylaminomethyl)-2-azabicyclo[2.1.1]hexan-2-yl]-6,7-dihydro-5H-cyclopenta[d]pyrimidin-4-amine], the Dmax at 0.5 µM at MycN (SKNBE2 cells, 24 h, 0.5 μM) was in the range of 20 to 49%. The Dmax at 1 µM on MycN (SKNBE2 cells, 24 h, 1 μM) was in the range of 50 to 79%. The Dmax at 3 µM was 80 to 100% at MycN (SKNBE2 cells, 24 h, 3 μM) and 80 to 100% on MycC (L-363 cells, 24 h, 3 μM). Also, the Dmax at 6 µM on MycN (SKNBE2 cells, 24 h, 6 μM) was 80 to 100%; on MycC (L-363 cells, 24 h, 6 μM), 80 to 100%.
Turning to `NC[C@H]1CN(c2nccc(Nc3cc(C4CCCC4)[nH]n3)n2)CCO1` [Compound 187, 2-[(2S)-2-(Aminomethyl)morpholin-4-yl]-N-(5-cyclopentyl-1H-pyrazol-3-yl)pyrimidin-4-amine], the Dmax at 0.5 µM on MycN (SKNBE2 cells, 24 h, 0.5 μM) was 20 to 49%; at MycC (L-363 cells, 24 h, 0.5 μM) it was under 20%. Also, the Dmax at 1 µM on MycN (SKNBE2 cells, 24 h, 1 μM) fell in the range of 20 to 49%; on MycC (L-363 cells, 24 h, 1 μM), 20 to 49%. Also, the Dmax at 3 µM on MycN (SKNBE2 cells, 24 h, 3 μM) lay in the range of 20 to 49%; on MycC (L-363 cells, 24 h, 3 μM), 20 to 49%. Moreover, the Dmax at 6 µM at MycN (SKNBE2 cells, 24 h, 6 μM) was 50 to 79%; at MycC (L-363 cells, 24 h, 6 μM) it was 50 to 79%.
As to `CNC[C@H]1CN(c2nccc(Nc3cc(C4CC4)[nH]n3)n2)C[C@H]1F` [Compound 191, N-(5-Cyclopropyl-1H-pyrazol-3-yl)-2-[(3S,4S)-3-fluoro-4-(methylaminomethyl)pyrrolidin-1-yl]pyrimidin-4-amine], the Dmax at 0.5 µM at MycN (SKNBE2 cells, 24 h, 0.5 μM) is under 20%. Further, the Dmax at 1 µM at MycN (SKNBE2 cells, 24 h, 1 μM) was 20 to 49%; at MycC (L-363 cells, 24 h, 1 μM), under 20%. The Dmax at 3 µM on MycN (SKNBE2 cells, 24 h, 3 μM) lay in the range of 80 to 100%; at MycC (L-363 cells, 24 h, 3 μM), 50 to 79%. Moreover, the Dmax at 6 µM is 80 to 100% at MycN (SKNBE2 cells, 24 h, 6 μM) and 80 to 100% on MycC (L-363 cells, 24 h, 6 μM).
